In US7332601B2, “CCI-779 derivatives and methods of making same” (Wyeth, priority 2004, dated 2008):

Assays:
CYP450 2C19 = CYP450 2C19 (Homo sapiens, UniProt P33261); experiment: Generation of CCI-779 derivatives by CYP450 isozyme incubation; assay type: in vitro ADME
CYP450 2C9 = CYP450 2C9 (Homo sapiens, UniProt P11712); experiment: as above; assay type: in vitro ADME
[1] = tested on: histologically diverse tumor cells; settings: cited from earlier work
[2] = tested on: human tumor xenografts of diverse histological types; settings: nude mice, cited from earlier work
orthotopic glioma model = settings: nude mice; cited from earlier work
CYP450 2C8 = biological target: T1, CYP450 2C8 (Homo sapiens, UniProt P10632); experiment: Generation of CCI-779 derivatives by CYP450 isozyme incubation; assay type: in vitro ADME
T1 sequence (P10632 1-490): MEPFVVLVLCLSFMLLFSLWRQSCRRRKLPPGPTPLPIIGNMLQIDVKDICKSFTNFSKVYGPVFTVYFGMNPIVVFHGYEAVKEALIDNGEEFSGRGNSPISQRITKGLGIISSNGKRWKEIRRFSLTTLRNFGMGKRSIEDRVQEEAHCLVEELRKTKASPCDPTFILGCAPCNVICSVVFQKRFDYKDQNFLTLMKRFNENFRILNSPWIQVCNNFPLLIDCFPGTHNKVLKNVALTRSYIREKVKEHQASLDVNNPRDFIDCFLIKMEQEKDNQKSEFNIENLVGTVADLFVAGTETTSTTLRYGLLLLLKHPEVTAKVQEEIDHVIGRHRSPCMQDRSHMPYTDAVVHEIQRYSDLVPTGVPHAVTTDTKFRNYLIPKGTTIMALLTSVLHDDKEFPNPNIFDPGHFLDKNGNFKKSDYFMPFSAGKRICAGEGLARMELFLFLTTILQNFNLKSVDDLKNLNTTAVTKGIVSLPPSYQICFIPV

CYP450 2A6 = biological target: T2, CYP450 2A6 (Homo sapiens, UniProt P11509); experiment: as above; assay type: in vitro ADME
T2 sequence (P11509 1-494): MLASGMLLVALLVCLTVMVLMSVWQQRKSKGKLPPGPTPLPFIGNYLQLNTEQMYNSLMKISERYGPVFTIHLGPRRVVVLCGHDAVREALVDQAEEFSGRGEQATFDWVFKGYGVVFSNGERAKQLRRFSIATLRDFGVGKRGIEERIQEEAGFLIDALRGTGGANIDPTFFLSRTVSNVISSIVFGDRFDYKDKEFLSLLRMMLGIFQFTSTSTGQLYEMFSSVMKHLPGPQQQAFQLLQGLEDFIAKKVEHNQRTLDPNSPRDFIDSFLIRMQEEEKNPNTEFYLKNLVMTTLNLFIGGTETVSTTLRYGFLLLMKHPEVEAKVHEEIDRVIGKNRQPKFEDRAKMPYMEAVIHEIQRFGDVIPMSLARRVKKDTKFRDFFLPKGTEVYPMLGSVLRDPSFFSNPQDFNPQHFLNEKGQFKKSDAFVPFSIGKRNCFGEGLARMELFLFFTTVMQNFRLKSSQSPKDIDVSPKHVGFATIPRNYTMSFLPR

[3] = tested on: human glioblastoma cell line; settings: human glioblastoma cell line in vitro; cited from earlier work
breast cancer lines = settings: one of two breast cancer lines studied in vivo; cited from earlier work
human pancreatic tumors = settings: several human pancreatic tumors in nude mice; cited from earlier work
CYP3A4 = biological target: T3, CYP3A4 (Homo sapiens, UniProt P08684); experiment: Generation of CCI-779 derivatives by CYP450 isozyme incubation; assay type: in vitro ADME
T3 construct: host or cells: E. coli (membrane preparation)
Description: The invention provides a method of generating specific derivatives of CCI-779 by incubating CCI-779 with membranes of recombinant E. coli cells expressing human cytochrome P450-3A4 isozymes.
In order to generate the specific hydroxylation derivatives of the invention, CCI-779 and CYP3A4 may be incubated in the presence of a reducing agent, such as NADH or NADPH. Suitably, CCI-779 and the enzyme can be present in a ratio of 300:1 to 500:1, and desirably about 330:1 CCI-779 to enzyme. In the examples below, these components are mixed to a final concentration of 0.1 mM CCI-779, 300 nM 3A4 enzyme, and 2 mM NADPH regenerate system. However, other concentrations can be readily used.
To a 5L reactor containing CCI-779 514 mg (0.5 mmol), MgCl2 (0.4 M×100 ml), NADPH generating system (NADP sodium salt: 75 mg×100 mL, D-glucose-6-phospate: 60 mg/mL×100 mL; glucose-6-phosphate dehydrogenase: 25 units/mL×100 mL), and E. coli-expressed CYP-3A4 membrane (1500 nmol) was added potassium phosphate buffer solution to 5L. The mixture solution was incubated at 37° C. under oxygen atmosphere (sparging O2 at 0.3 L/min) with agitation of 125 rpm for one hour. After one-hour reaction, the reaction solution was cooled down to 25° C. on an ice bath and extracted with an equal volume of ethyl acetate twice. […]

CYP450 2E1 = CYP450 2E1 (Homo sapiens, UniProt P05181); experiment: as above; assay type: in vitro ADME
CYP450 2E1, sequence (P05181 whole entry): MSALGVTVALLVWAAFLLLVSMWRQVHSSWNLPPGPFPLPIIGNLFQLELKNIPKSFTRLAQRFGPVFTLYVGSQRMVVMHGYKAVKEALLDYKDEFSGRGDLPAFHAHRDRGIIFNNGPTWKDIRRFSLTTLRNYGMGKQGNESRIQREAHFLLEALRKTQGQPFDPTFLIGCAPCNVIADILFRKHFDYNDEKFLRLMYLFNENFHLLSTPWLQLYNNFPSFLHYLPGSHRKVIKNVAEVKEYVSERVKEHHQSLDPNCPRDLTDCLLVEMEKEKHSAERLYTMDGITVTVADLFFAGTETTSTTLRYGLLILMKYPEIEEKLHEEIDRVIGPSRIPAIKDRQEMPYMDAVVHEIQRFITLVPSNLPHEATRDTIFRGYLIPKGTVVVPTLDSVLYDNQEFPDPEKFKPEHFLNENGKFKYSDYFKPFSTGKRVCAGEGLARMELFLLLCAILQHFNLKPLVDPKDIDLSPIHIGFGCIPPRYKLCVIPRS

T3 sequence (P08684 whole entry): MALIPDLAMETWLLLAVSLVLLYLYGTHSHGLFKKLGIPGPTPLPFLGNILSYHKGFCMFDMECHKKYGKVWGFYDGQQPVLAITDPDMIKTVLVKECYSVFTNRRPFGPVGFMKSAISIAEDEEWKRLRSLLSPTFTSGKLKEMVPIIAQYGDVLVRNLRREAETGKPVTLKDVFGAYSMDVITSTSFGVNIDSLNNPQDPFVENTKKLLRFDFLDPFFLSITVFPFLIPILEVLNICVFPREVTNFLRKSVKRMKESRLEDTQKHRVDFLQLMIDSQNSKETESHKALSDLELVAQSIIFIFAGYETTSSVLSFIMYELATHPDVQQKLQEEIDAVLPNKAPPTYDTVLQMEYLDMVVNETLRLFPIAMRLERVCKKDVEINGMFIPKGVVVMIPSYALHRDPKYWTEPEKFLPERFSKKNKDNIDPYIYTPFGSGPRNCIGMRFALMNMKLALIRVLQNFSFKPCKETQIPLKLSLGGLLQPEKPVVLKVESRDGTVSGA
CYP450 2C9, sequence (P11712 whole entry): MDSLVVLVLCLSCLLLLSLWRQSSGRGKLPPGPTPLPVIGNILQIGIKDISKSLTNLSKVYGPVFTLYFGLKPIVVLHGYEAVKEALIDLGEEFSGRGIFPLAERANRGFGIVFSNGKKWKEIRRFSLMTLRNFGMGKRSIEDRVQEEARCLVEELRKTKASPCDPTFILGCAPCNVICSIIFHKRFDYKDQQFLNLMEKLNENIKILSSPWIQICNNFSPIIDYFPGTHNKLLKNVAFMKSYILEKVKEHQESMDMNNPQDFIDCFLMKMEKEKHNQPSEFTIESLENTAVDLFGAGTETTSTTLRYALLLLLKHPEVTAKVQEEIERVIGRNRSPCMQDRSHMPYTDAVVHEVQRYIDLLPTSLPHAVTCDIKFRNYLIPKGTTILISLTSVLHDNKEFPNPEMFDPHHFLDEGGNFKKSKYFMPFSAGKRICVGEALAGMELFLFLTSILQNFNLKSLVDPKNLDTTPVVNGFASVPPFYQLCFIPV
CYP450 2C19, sequence (P33261 whole entry): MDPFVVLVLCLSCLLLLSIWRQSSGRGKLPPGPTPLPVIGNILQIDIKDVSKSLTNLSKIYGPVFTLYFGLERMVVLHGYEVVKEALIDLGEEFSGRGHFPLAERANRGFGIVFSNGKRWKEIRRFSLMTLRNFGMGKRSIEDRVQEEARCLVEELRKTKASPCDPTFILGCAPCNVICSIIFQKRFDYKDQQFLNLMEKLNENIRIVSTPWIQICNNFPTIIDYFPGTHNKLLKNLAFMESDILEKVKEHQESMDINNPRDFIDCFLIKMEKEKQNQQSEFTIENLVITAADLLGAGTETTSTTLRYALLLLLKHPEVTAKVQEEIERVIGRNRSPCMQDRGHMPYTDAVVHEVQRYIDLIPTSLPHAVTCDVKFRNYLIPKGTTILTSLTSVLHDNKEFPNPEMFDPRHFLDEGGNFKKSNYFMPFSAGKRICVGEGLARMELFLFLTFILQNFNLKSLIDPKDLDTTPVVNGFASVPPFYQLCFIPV

SMILES: CO[C@H]1CC2CC[C@@H](C)[C@@](O)(O2)C(=O)C(=O)N2CCCC[C@H]2C(=O)O[C@H]([C@H](C)C[C@@H]2CC[C@@H](OC(=O)C(C)(CO)CO)[C@H](OC)C2)CC(=O)[C@H](C)/C=C(\C)[C@@H](O)[C@@H](OC)C(=O)[C@H](C)C[C@H](C)/C=C/C=C/C=C/1C [CCI-779, Rapamycin 42-ester with 2,2-bis(hydroxymethyl)propionic acid]
- generation of CCI-779 derivatives by the enzyme (CYP450 2C19): not able to generate these derivatives
- generation of CCI-779 derivatives by the enzyme (CYP450 2C9): not able to generate these derivatives
- sensitivity of tumor lines ([1]; CNS cancer, leukemia (T-cell), breast cancer, prostate cancer and melanoma lines): among the most sensitive
- inhibition of growth of tumor cells ([1]; in vitro, a number of histologically diverse tumor cells): inhibit the growth
- cell cycle effect ([1]; in vitro): arrested cells in the G1 phase
- sensitivity of gliomas ([2]; gliomas): particularly sensitive
- activity against human tumor xenografts [2]: has activity
- activity in orthotopic glioma model (orthotopic glioma model): active
- generation of CCI-779 derivatives by the enzyme (CYP450 2C8): not able to generate these derivatives
- generation of CCI-779 derivatives by the enzyme (CYP450 2A6): not able to generate these derivatives
- growth factor (platelet-derived)-induced stimulation [3]: markedly suppressed
- tumor growth (breast cancer lines): inhibited
- tumor growth (human pancreatic tumors): inhibited
- generation of CCI-779 derivatives by the enzyme (CYP3A4): the only member of this family of enzymes to specifically generate CCI-779 derivatives
- generation of CCI-779 derivatives by the enzyme (CYP450 2E1): not able to generate these derivatives
